Source: US11254688B2 (Boehringer Ingelheim International GmbH, priority 2018, dated 2022)
Where a name gives a salt, the structure may show the parent alone.

target: T1, hGOAT (Homo sapiens, UniProt Q96T53); test: Determination of hGOAT activity in HEK293 cells after incubation with test compound (acyl-ghrelin ELISA); type: cell-based; details: HEK293 cells stably transfected with preproghrelin and human GOAT; octanoate-BSA 100 μM; 5 hours incubation; acyl-ghrelin in medium by ELISA; 8 compound concentrations
T1 construct: expressed in transfected cells; host or cells: HEK293 (Hek293 hGOAT/PPGhrl Clone #1B8)
T1 sequence (Q96T53 1-435): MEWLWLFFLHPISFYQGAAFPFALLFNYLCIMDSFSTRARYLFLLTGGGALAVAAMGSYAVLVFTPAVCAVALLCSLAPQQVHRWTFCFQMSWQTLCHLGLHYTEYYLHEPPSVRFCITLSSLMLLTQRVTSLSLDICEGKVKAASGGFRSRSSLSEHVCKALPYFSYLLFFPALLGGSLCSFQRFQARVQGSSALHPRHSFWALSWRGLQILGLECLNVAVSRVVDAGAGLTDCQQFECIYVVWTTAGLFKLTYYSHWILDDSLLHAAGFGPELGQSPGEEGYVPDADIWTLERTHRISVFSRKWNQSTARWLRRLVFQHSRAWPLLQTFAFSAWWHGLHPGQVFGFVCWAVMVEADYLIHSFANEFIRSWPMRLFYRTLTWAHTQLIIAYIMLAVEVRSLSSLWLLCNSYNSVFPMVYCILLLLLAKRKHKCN
Method: Determination of hGOAT Activity in HEK293 Cells after Incubation with Test Compound
HEK293 cells stably transfected with two expression vectors, one coding for preproghrelin cDNA and a second for the expression of human GOATcDNA are used as a cellular model. After feeding the cells with octanoic acid for 5 hours, acyl-ghrelin is measured in cell culture medium by an ELISA procedure.
Cellline: Hek293 hGOAT/PPGhrl Clone #1B8Sodium octanoate, Sigma, Cat.-No. C5038
BD Poly-D-Lysin 384-well Plates, black-clear polystyrene BD Bioscience Cat.-No. […] ELISA human acylated Ghrelin Kit purchased from Bertin Pharman (detailed composition of buffers e.g. wash-puffer, ELISA buffer not known)
Cells are plated with a density of 5000 cells/well in 384-well poly-D-lysin plates and incubated for 1 day at 37° C., 5% CO2 in DMEM medium, 10% FCS, 1×NEAA, Puromycin (0.5 μg/ml) and G418 (1 mg/ml). Then the medium is changed to a identical medium without FCS and containing Octanoate-BSA (final concentration 100 μM each) and compound in DMSO (final DMSO concentration 0,3%). After incubation for 5 hours acylghrelin in the medium is measured by ELISA.
The medium sample is diluted 1:25 in Elisa buffer, a 25 μl aliquot is transferred to a 384-well ELISA plate previously washed 4 times with 100 μL wash buffer, and 25 μl tracer-solution is added. After incubation overnight (˜20 h) at 4° C. temperature the plate is washed 4 times with 100 μl wash-buffer per well. Finally 50 μl Ellman's reagent is added to each well and the plate is incubated in the dark for 20 minutes. The absorbance is measured at 405 nm in an Envision multilabel reader and the amount of acylated ghrelin is calculated according to a acylated ghrelin standard curve provided in the same plate.
The analysis of the data is performed by calculation of the percentage of acyl-ghrelin produced in the presence of test compound compared to the amount of acyl-ghrelin produced in the vehicle control samples. An inhibitor of the GOAT enzyme will give values between 100% CTL (no inhibition) and 0% CTL (complete inhibition).
IC50 values are calculated with Assay Explorer or other suited software based on curve fitting of results of 8 different compound concentrations.

SMILES	IC50 [nM]
Cc1nc2nonc2c(N)c1Cc1cccc(C(F)(F)F)c1 [Compound 4.38, 5-Methyl-6-{[3-(trifluoromethyl)phenyl]methyl}-[1,2,5]oxadiazolo[3,4-b]pyridin-7-amine]	0.268
Cc1nc2nonc2c(N)c1Cc1ccc(SC(F)(F)F)cc1 [Compound 4.32, 5-Methyl-6-({4-[(trifluoromethyl)sulfanyl]phenyl}methyl)-[1,2,5]oxadiazolo[3,4-b]pyridin-7-amine]	0.064
Cc1nc2nonc2c(N)c1Cc1ccc(OC(F)(F)F)nc1 [Compound 4.58, 5-Methyl-6-{[6-(trifluoromethoxy)pyridin-3-yl]methyl}-[1,2,5]oxadiazolo[3,4-b]pyridin-7-amine]	0.752
Cc1nc2nonc2c(N)c1Cc1ccc(C(F)(F)F)c(C#N)c1 [Compound 4.57, 5-({7-Amino-5-methyl-[1,2,5]oxadiazolo[3,4-b]pyridin-6-yl}methyl)-2-(trifluoromethyl)benzonitrile]	0.121
Cc1nc2nonc2c(N)c1Cc1ccc(F)cc1 [Compound 4.50, 6-[(4-Fluorophenyl)methyl]-5-methyl-[1,2,5]oxadiazolo[3,4-b]pyridin-7-amine]	0.751
COc1ccc(Cc2c(C)nc3nonc3c2N)cc1 [Compound 4.53, 6-[(4-Methoxyphenyl)methyl]-5-methyl-[1,2,5]oxadiazolo[3,4-b]pyridin-7-amine]	0.147
COc1cccc(Cc2c(C)nc3nonc3c2N)c1 [Compound 4.51, 6-[(3-Methoxyphenyl)methyl]-5-methyl-[1,2,5]oxadiazolo[3,4-b]pyridin-7-amine]	0.673
Cc1nc2nonc2c(N)c1Cc1cccc(C#N)c1 [Compound 4.36, 3-(7-Amino-5-methyl-[1,2,5]oxadiazolo[3,4-b]pyridin-6-ylmethyl)-benzonitrile]	5.8
Cc1nc2nonc2c(N)c1Cc1cccnc1OC(F)F [Compound 4.47, 6-{[2-(Difluoromethoxy)pyridin-3-yl]methyl}-5-methyl-[1,2,5]oxadiazolo[3,4-b]pyridin-7-amine]	1.8
Cc1nc2nonc2c(N)c1Cc1cccc(S(=O)(=O)C(F)(F)F)c1 [Compound 4.42, 5-Methyl-6-[(3-trifluoromethanesulfonylphenyl)methyl]-[1,2,5]oxadiazolo[3,4-b]pyridin-7-amine]	0.377
Cc1nc2nonc2c(N)c1Cc1ccc(C#N)c(OC(F)F)c1 [Compound 4.35, 4-({7-Amino-5-methyl-[1,2,5]oxadiazolo[3,4-b]pyridin-6-yl}methyl)-2-(difluoromethoxy)benzonitrile]	0.111
COc1cc(C#N)ccc1Cc1c(C)nc2nonc2c1N [Compound 2.4, 4-({7-Amino-5-methyl-[1,2,5]oxadiazolo[3,4-b]pyridin-6-yl}methyl)-3-methoxybenzonitrile]	0.133

Other lines, results leading:

IC50 [nM]	SMILES
4.27	Cc1nc2nonc2c(N)c1Cc1ccc(C(=O)NC2(CO)CC2)cc1 [Compound 14.6, 4-({7-Amino-5-methyl-[1,2,5]oxadiazolo[3,4-b]pyridin-6-yl}methyl)-N-[1-(hydroxymethyl)cyclopropyl]benzamide]
0.555	Cc1nc2nonc2c(N)c1Cc1ccc(C(C)(C)C(N)=O)nc1 [Compound 19.3, 2-[5-({7-Amino-5-methyl-[1,2,5]oxadiazolo[3,4-b]pyridin-6-yl}methyl)pyridin-2-yl]-2-methylpropanamide]
2.42	N#Cc1nc2nonc2c(N)c1Cc1ccc(C(F)(F)F)cc1 [Compound 24.4, 7-Amino-6-{[4-(trifluoromethyl)phenyl]methyl}-[1,2,5]oxadiazolo[3,4-b]pyridine-5-carbonitrile]
1.25	Cc1nc2nonc2c(N)c1Cc1ccc(-c2ccsc2C#N)n2cnnc12 [Compound 12.12, 3-[8-({7-Amino-5-methyl-[1,2,5]oxadiazolo[3,4-b]pyridin-6-yl}methyl)-[1,2,4]triazolo[4,3-a]pyridin-5-yl]thiophene-2-carbonitrile]
0.737	Nc1c(Cc2ccc(F)cc2)c(Cl)nc2nonc12 [Compound 23.5, 5-Chloro-6-[(4-fluorophenyl)methyl]-[1,2,5]oxadiazolo[3,4-b]pyridin-7-amine]
5.73	Nc1c(Cc2ccc(C(F)(F)F)cc2)c(CO)nc2nonc12 [Compound 24.2, (7-Amino-6-{[4-(trifluoromethyl)phenyl]methyl}-[1,2,5]oxadiazolo[3,4-b]pyridin-5-yl)methanol]
4.7	Cc1nc2nonc2c(N)c1Cc1ccc(C(=O)NC(C)CO)cc1 (stereo not shown) [Compound 14.10, 4-({7-amino-5-methyl-[1,2,5]oxadiazolo[3,4-b]pyridin-6-yl}methyl)-N-(1-hydroxypropan-2-yl)benzamide]
3.64	Cc1nc2nonc2c(N)c1Cc1ccc(C(=O)NCc2cnccn2)cc1 [Compound 14.8, 4-({7-Amino-5-methyl-[1,2,5]oxadiazolo[3,4-b]pyridin-6-yl}methyl)-N-[(pyrazin-2-yl)methyl]benzamide]
4.99	Cc1nc2nonc2c(N)c1Cc1ccc(C(=O)NCC2(C)COC2)cc1 [Compound 14.13, 4-({7-Amino-5-methyl-[1,2,5]oxadiazolo[3,4-b]pyridin-6-yl}methyl)-N-[(3-methyloxetan-3-yl)methyl]benzamide]
6.29	Cc1nc2nonc2c(N)c1Cc1ccc(C(N)=O)cc1 [Compound 14.1, 4-({7-Amino-5-methyl-[1,2,5]oxadiazolo[3,4-b]pyridin-6-yl}methyl)benzamide]
3.02	Cc1nc2nonc2c(N)c1Cc1ccc(C(=O)NC2CCOC2)cc1 (stereo not shown) [Compound 14.12, 4-({7-Amino-5-methyl-[1,2,5]oxadiazolo[3,4-b]pyridin-6-yl}methyl)-N-(oxolan-3-yl)benzamide]
6.12	CN(C)c1nc2nonc2c(N)c1Cc1ccc(C(F)(F)F)cc1 [Compound 24.3, N5,N5-Dimethyl-6-{[4-(trifluoromethyl)phenyl]methyl}-[1,2,5]oxadiazolo[3,4-b]pyridine-5,7-diamine Trifluoroacetic Acid Salt]
0.509	Cc1nc2nonc2c(N)c1Cc1ccc(-c2ccsc2C#N)nc1 [Compound 12.3, 3-[5-(7-Amino-5-methyl-[1,2,5]oxadiazolo[3,4-b]pyridin-6-ylmethyl)-pyridin-2-yl]-thiophene-2-carbonitrile]
0.043	Cc1nc2nonc2c(N)c1Cc1ccc(OC(F)(F)F)c(-c2cc[nH]n2)c1 [Compound 12.2, 5-Methyl-6-[3-(1H-pyrazol-3-yl)-4-trifluoromethoxy-benzyl]-[1,2,5]oxadiazolo[3,4-b]pyridin-7-ylamine]
0.531	Cc1nc2nonc2c(N)c1Cc1ccc(-c2cncn2C)nc1 [Compound 12.8, 5-Methyl-6-{[6-(1-methyl-1H-imidazol-5-yl)pyridin-3-yl]methyl}-[1,2,5]oxadiazolo[3,4-b]pyridin-7-amine]
0.099	Cc1nc2nonc2c(N)c1Cc1ccc(C#N)c(OCC(F)(F)F)c1 [Compound 21.1, 4-({7-Amino-5-methyl-[1,2,5]oxadiazolo[3,4-b]pyridin-6-yl}methyl)-2-(2,2,2-trifluoroethoxy)benzonitrile]
0.183	Cc1nc2nonc2c(N)c1Cc1ccc(OC(F)(F)F)c(C(=O)N(C)C)c1 [Compound 15.1, 5-({7-Amino-5-methyl-[1,2,5]oxadiazolo[3,4-b]pyridin-6-yl}methyl)-N,N-dimethyl-2-(trifluoromethoxy)benzamide]
0.978	Cc1nc2nonc2c(N)c1Cc1ccc(OC2CCOCC2)nc1 [Compound 21.12, 5-Methyl-6-[6-(tetrahydro-pyran-4-yloxy)-pyridin-3-ylmethyl]-[1,2,5]oxadiazolo[3,4-b]pyridin-7-ylamine]
1.54	Cc1nc2nonc2c(N)c1Cc1cccc(N=S(C)(C)=O)c1 [Compound 13.1, {[3-({7-Amino-5-methyl-[1,2,5]oxadiazolo[3,4-b]pyridin-6-yl}methyl)phenyl]imino}dimethyl-λ^6-sulfanone]
